# In US20210069272A1, “METHODS FOR SKIN WHITENING, ULTRAVIOLET RADIATION PROTECTION AND SUPPRESSION OF GLYCATION USING GREEN MANGO EXTRACTS AND COMPOUNDS OBTAINED THEREFROM” (TCI CO., LTD., priority 2019, published 2021):
# Tests used:
# porcine collagen = assay: Anti-glycation assay, AGEs formation due to collagen glycation with fructose; type: biochemical; details: 100 μg/mL aqueous solution, 50° C., 24 hours
# Procedure: In order to evaluate the anti-glycation activity of the green mango extract, an anti-glycation assay was performed to determine the inhibitory effect of the green mango extract described in Example 1 on glycation of porcine collagen. Briefly, a 60 mg/mL collagen solution (containing 0.06% sodium azide) and a 1.5 M fructose solution were first prepared using a 200 mM phosphate buffer (pH 7.4). For collagen to undergo glycation, a mixture of 0.2 mL of the collagen solution and 0.2 mL of the fructose solution was mixed thoroughly with 0.2 mL of the green mango extract sample at 140, 70, 14, 1.4, or 0.14 mg/mL (diluted with deionized water), or mixed with deionized water (as a control). The reaction mixtures were incubated at 50° C. for 24 hours. Thereafter, aminoguanidine (AG, purchased from Sigma) was added to terminate the glycation reaction. […] The reaction mixtures were incubated at 50° C. for 24 hours, and the fluorescence intensity of each of the mixtures (0.1 mL) at 0 hours and 24 hours was measured to calculate the rate of AGEs formation due to collagen glycation.
# melanoma cells B16F10 = assay: Melanin production assay in melanoma cells B16F10; type: cell-based, mouse; details: 0.25 mg/mL, 48 hours
# Procedure: The melanin levels in B 16F10 melanoma cells were determined according to procedures described below. Cells were harvested from the cell culture treated as indicated. The cells were washed with PBS and treated with trypsin for 3 minutes. The suspended cells were collected by centrifugation (400×g, 5 minutes), washed twice with PBS, and then resuspended in 200 μL of PBS. The cell suspension was frozen in liquid nitrogen for 10 minutes and then left at room temperature for about 30 minutes until completely thawed, followed by centrifugation (12,000 g, 3 minutes) to remove the supernatant. The remaining cell pellet was mixed thoroughly with 120 μL of 1 N sodium hydroxide aqueous solution, and heated at 60° C. for 1 hour to obtain a cell lysate containing dissolved melanin. 100 μL of the cell lysate was transferred to a 96-well plate, and the absorbance at 450 nm (OD450) was measured using an enzyme-linked immunosorbent assay (ELISA) reader (BioTek). The relative melanin level is calculated according to the following formula: Relative melanin level (%)=(OD450each group/OD450mock control)×100% In order to examine the effect of the green mango extract on melanin production, the melanoma cells B16F10 was assayed for melanin production after treatment with the green mango extract described in Example 1. […]
Structure (SMILES),AGEs formation compared to the control (porcine collagen),"inhibitory effect on melanin production, green mango extract versus kojic acid at the same concentration (melanoma cells B16F10)"
O=C(OCC1OC(OC(=O)c2cc(O)c(O)c(O)c2)C(OC(=O)c2cc(O)c(O)c(O)c2)C(OC(=O)c2cc(O)c(O)c(O)c2)C1OC(=O)c1cc(O)c(O)c(O)c1)c1ccc(O)cc1 (stereo not drawn) [formula (I)],about 60.2%,–
O=C(OCC1OC(OC(=O)c2cc(O)c(O)c(O)c2)C(OC(=O)c2cc(O)c(O)c(O)c2)C(OC(=O)c2cc(O)c(O)c(O)c2)C1OC(=O)c1cc(O)c(O)c(O)c1)c1cc(O)c(O)c(O)c1 (stereo not drawn) [formula (II)],~73.7%,–
O=c1cc(CO)occ1O [kojic acid],–,comparable
